Assay results taken from US5462926A (Biomeasure, Inc., priority 1993, dated 1995).
Where a SMILES comes first, the peptide text is derived from it. Bridges are numbered along the chain shown (N, C = ends). [ ]: non-standard residue; d: D form. 2Nal = N[C@@H](Cc1ccc2ccccc2c1)C(=O)O; d2Nal = N[C@H](Cc1ccc2ccccc2c1)C(=O)O

Legend:
Type in all cases: binding
Conditions in all cases: 1 μM
PYY receptor = experiment: PYY membrane receptor assay, rat cerebral cortex
bradykinin1 = experiment: Bradykinin membrane receptor assay, [3H]bradykinin
α1-adrenergic receptor = experiment: α1-adrenergic membrane receptor assay, rat cerebral cortex
α2-adrenergic receptor = experiment: α2-adrenergic membrane receptor assay, rat cerebral cortex
β1-adrenergic receptor = molecular target: T1, β1-adrenergic receptor (Homo sapiens, UniProt P08588); experiment: β1-adrenergic membrane receptor assay, [3H]dihydroalprenolol
T1 construct: receptors on plasma membranes on various tissues determined as described in METHODS; from tissue; host or cells: plasma membranes

[1] = test system: benzodiazepine-neural receptor; experiment: Neural benzodiazepine membrane receptor assay, rat cerebral cortex
[2] = molecular target: T2, benzodiazepine-peripheral receptor (Rattus norvegicus, UniProt P16257); experiment: Peripheral benzodiazepine membrane receptor assay, rat cerebral cortex
T2 construct: from tissue; host or cells: rat cerebral cortex membranes

adenosine1 receptor = molecular target: T3, adenosine1 receptor (Rattus norvegicus, UniProt P25099); experiment: Adenosine membrane receptor assay, rat cerebral cortex
T3 construct: rat cerebral cortex (CCKB, PYY, neurotensin, α1 -adrenergic, α2 -adrenergic, muscarinic cholinergic, neural benzodiazepine, peripheral benzodiazepine, adenosine,; from tissue; host or cells: rat cerebral cortex membranes

delta opioid receptor = molecular target: T4, delta opioid receptor (Rattus norvegicus, UniProt P33533); experiment: Delta opioid membrane assay, rat forebrain
T4 construct: rat forebrain (TRH, mu and delta opioid membrane assays); from tissue; host or cells: rat forebrain membranes
T4 sequence (P33533 whole entry): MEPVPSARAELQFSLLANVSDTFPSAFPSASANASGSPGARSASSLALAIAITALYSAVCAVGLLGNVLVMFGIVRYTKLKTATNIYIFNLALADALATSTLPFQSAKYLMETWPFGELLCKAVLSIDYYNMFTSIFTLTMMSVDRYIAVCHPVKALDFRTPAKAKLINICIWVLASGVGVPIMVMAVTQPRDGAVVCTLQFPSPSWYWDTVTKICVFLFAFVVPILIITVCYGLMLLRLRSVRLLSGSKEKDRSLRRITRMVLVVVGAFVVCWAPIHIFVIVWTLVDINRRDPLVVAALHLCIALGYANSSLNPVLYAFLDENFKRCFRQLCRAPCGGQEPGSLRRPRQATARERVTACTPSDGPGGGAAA

T1 sequence (P08588 whole entry): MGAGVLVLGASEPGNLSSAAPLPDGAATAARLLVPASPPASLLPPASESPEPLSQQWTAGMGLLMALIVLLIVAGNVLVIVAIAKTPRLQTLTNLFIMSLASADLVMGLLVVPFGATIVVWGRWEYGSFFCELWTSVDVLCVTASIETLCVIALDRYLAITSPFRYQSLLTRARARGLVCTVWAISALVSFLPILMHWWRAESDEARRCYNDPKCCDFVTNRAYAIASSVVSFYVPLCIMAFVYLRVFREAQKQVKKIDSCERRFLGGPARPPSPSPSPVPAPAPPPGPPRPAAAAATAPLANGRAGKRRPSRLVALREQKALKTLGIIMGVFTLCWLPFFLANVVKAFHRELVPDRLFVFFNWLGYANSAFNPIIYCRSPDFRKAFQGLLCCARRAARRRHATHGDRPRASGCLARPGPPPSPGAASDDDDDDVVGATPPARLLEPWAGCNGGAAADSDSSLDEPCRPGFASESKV
T2 sequence (P16257 whole entry): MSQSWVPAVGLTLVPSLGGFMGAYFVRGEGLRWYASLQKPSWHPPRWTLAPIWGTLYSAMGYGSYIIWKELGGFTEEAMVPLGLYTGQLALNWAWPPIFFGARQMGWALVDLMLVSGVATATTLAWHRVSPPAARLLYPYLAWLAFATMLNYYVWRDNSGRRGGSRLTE
T3 sequence (P25099 whole entry): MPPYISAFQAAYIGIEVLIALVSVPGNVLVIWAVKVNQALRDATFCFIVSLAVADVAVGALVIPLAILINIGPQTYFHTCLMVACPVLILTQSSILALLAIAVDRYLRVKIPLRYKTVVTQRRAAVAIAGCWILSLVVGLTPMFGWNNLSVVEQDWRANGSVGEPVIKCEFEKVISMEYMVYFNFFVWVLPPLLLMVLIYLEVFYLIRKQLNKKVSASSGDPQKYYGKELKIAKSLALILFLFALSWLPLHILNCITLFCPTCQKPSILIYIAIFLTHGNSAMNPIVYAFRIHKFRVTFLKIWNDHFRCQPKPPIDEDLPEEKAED

CC(C)[C@@H]1NC(=O)[C@H](CCCCN)NC(=O)[C@@H](Cc2c[nH]c3ccccc23)NC(=O)[C@H](Cc2ccc(O)cc2)NC(=O)[C@@H](NC(=O)[C@H](N)Cc2ccc3ccccc3c2)CSSC[C@@H](C(=O)N[C@@H](Cc2ccc3ccccc3c2)C(N)=O)NC1=O [Analog #1, H2 -D-Nal-Cys-Tyr-D-Trp-Lys-Val-Cys-Nal-NH2] (H-[d2Nal]CY[dW]KVC[2Nal]-NH2; disulfide 2-7)
did not inhibit binding: inhibition of binding to PYY receptors (PYY receptor) | inhibition of binding to bradykinin1 receptors (bradykinin1) | inhibition of binding to α1-adrenergic receptors (α1-adrenergic receptor) | inhibition of binding to α2-adrenergic receptors (α2-adrenergic receptor) | inhibition of binding to β1-adrenergic receptors (β1-adrenergic receptor) | inhibition of binding to benzodiazepine-neural receptors [1] | inhibition of binding to benzodiazepine-peripheral receptors [2] | inhibition of binding to adenosine1 receptors (adenosine1 receptor) | inhibition of binding to delta opioid receptors (delta opioid receptor)
